What was measured:
Assay type in all cases: functional
[1] = test system: Klebsiella pneumoniae; test: Antimicrobial activity against CMY-2,CTX-M-14,TEM-2-like beta-lactamase producing Klebsiella pneumoniae isolate CUMCK2 by disk diffusion method
[2] = test system: Escherichia coli; test: Antimicrobial activity against CMY-2 beta-lactamase producing Escherichia coli isolate CUMC243 by disk diffusion method
[3] = test system: Escherichia coli; test: Antimicrobial activity against CMY-2,CTX-M-14,TEM-2-like beta-lactamase producing Escherichia coli isolate CUMC215 by disk diffusion method
[4] = test system: Escherichia coli; test: Antimicrobial activity against CTX-M-14-like, TEM-1-like beta-lactamase producing Escherichia coli isolate CUMC203 by disk diffusion method
[5] = test system: Escherichia coli; test: Antimicrobial activity against CTX-M-14-like, TEM-1-like beta-lactamase producing Escherichia coli isolate CUMC204 by disk diffusion method
[6] = test system: Escherichia coli; test: Antimicrobial activity against CTX-M-14-like, TEM-1-like beta-lactamase producing Escherichia coli isolate CUMC233 by disk diffusion method
[7] = test system: Escherichia coli; test: Antimicrobial activity against CTX-M-14, TEM-1-like beta-lactamase producing Escherichia coli isolate CUMC241 by disk diffusion method
[8] = test system: Escherichia coli; test: Antimicrobial activity against CTX-M-14, TEM-1-like beta-lactamase producing Escherichia coli isolate CUMC244 by disk diffusion method
[9] = test system: Escherichia coli; test: Antimicrobial activity against CTX-M-14, TEM-1-like beta-lactamase producing Escherichia coli isolate CUMC248 by disk diffusion method
[10] = test system: Klebsiella pneumoniae; test: Antimicrobial activity against SHV-12-like, SHV-1-like beta-lactamase producing Klebsiella pneumoniae isolate CUMCK9 by disk diffusion method
[11] = test system: Klebsiella pneumoniae; test: Antimicrobial activity against CMY-2,CTX-M-14,TEM-2-like beta-lactamase producing Klebsiella pneumoniae isolate CUMCK2 by disk diffusion method in presence of beta-lactamase inhibitor clavulanic acid
[12] = test system: Escherichia coli; test: Antimicrobial activity against CMY-2,CTX-M-14,TEM-2-like beta-lactamase producing Escherichia coli isolate CUMC215 by disk diffusion method in presence of beta-lactamase inhibitor clavulanic acid
[13] = test system: Escherichia coli; test: Antimicrobial activity against CMY-2 beta-lactamase producing Escherichia coli isolate CUMC243 by disk diffusion method in presence of beta-lactamase inhibitor clavulanic acid
[14] = test system: Escherichia coli; test: Antimicrobial activity against CMY-2 beta-lactamase producing Escherichia coli isolate CUMC181 by disk diffusion method in presence of beta-lactamase inhibitor clavulanic acid
[15] = test system: Escherichia coli; test: Antimicrobial activity against CMY-2 beta-lactamase producing Escherichia coli isolate CUMC190 by disk diffusion method in presence of beta-lactamase inhibitor clavulanic acid
[16] = test system: Escherichia coli; test: Antimicrobial activity against CMY-2 beta-lactamase producing Escherichia coli isolate CUMC201 by disk diffusion method in presence of beta-lactamase inhibitor clavulanic acid
[17] = test system: Escherichia coli; test: Antimicrobial activity against CMY-2 beta-lactamase producing Escherichia coli isolate CUMC214 by disk diffusion method in presence of beta-lactamase inhibitor clavulanic acid
[18] = test system: Escherichia coli; test: Antimicrobial activity against CMY-2 beta-lactamase producing Escherichia coli isolate CUMC223 by disk diffusion method in presence of beta-lactamase inhibitor clavulanic acid
[19] = test system: Escherichia coli; test: Antimicrobial activity against CMY-2,TEM-2-like beta-lactamase producing Escherichia coli isolate CUMC224 by disk diffusion method in presence of beta-lactamase inhibitor clavulanic acid
[20] = test system: Escherichia coli; test: Antimicrobial activity against CMY-2 beta-lactamase producing Escherichia coli isolate CUMC225 by disk diffusion method in presence of beta-lactamase inhibitor clavulanic acid
[21] = test system: Escherichia coli; test: Antimicrobial activity against CTX-M-15,OXA-30 beta-lactamase producing Escherichia coli isolate CUMC245 by disk diffusion method in presence of beta-lactamase inhibitor clavulanic acid
[22] = test system: Escherichia coli; test: Antimicrobial activity against CTX-M-14, TEM-1 beta-lactamase producing Escherichia coli isolate CUMC174 by disk diffusion method in presence of beta-lactamase inhibitor clavulanic acid
[23] = test system: Escherichia coli; test: Antimicrobial activity against CTX-M-14, TEM-1-like beta-lactamase producing Escherichia coli isolate CUMC176 by disk diffusion method in presence of beta-lactamase inhibitor clavulanic acid
[24] = test system: Escherichia coli; test: Antimicrobial activity against CTX-M-14, TEM-1-like beta-lactamase producing Escherichia coli isolate CUMC180 by disk diffusion method in presence of beta-lactamase inhibitor clavulanic acid
[25] = test system: Escherichia coli; test: Antimicrobial activity against CTX-M-14-like, TEM-1-like beta-lactamase producing Escherichia coli isolate CUMC192 by disk diffusion method in presence of beta-lactamase inhibitor clavulanic acid
[26] = test system: Escherichia coli; test: Antimicrobial activity against CTX-M-14-like, TEM-1-like beta-lactamase producing Escherichia coli isolate CUMC203 by disk diffusion method in presence of beta-lactamase inhibitor clavulanic acid
[27] = test system: Escherichia coli; test: Antimicrobial activity against CTX-M-14-like, TEM-1-like beta-lactamase producing Escherichia coli isolate CUMC204 by disk diffusion method in presence of beta-lactamase inhibitor clavulanic acid
[28] = test system: Escherichia coli; test: Antimicrobial activity against CTX-M-14-like, TEM-1-like beta-lactamase producing Escherichia coli isolate CUMC233 by disk diffusion method in presence of beta-lactamase inhibitor clavulanic acid
[29] = test system: Escherichia coli; test: Antimicrobial activity against CTX-M-14, TEM-1-like beta-lactamase producing Escherichia coli isolate CUMC241 by disk diffusion method in presence of beta-lactamase inhibitor clavulanic acid
[30] = test system: Escherichia coli; test: Antimicrobial activity against CTX-M-14, TEM-1-like beta-lactamase producing Escherichia coli isolate CUMC244 by disk diffusion method in presence of beta-lactamase inhibitor clavulanic acid
[31] = test system: Escherichia coli; test: Antimicrobial activity against CTX-M-14, TEM-1-like beta-lactamase producing Escherichia coli isolate CUMC248 by disk diffusion method in presence of beta-lactamase inhibitor clavulanic acid
[32] = test system: Klebsiella pneumoniae; test: Antimicrobial activity against SHV-12-like, SHV-1-like beta-lactamase producing Klebsiella pneumoniae isolate CUMCK9 by disk diffusion method in presence of beta-lactamase inhibitor clavulanic acid
[33] = test system: Escherichia coli; test: Antimicrobial activity against CTX-M-14-like, TEM-1-like beta-lactamase producing Escherichia coli isolate CUMC192 by disk diffusion method
[34] = test system: Escherichia coli; test: Antimicrobial activity against CTX-M-14, TEM-1-like beta-lactamase producing Escherichia coli isolate CUMC180 by disk diffusion method
[35] = test system: Escherichia coli; test: Antimicrobial activity against CTX-M-14, TEM-1-like beta-lactamase producing Escherichia coli isolate CUMC176 by disk diffusion method
[36] = test system: Escherichia coli; test: Antimicrobial activity against CTX-M-14, TEM-1 beta-lactamase producing Escherichia coli isolate CUMC174 by disk diffusion method
[37] = test system: Escherichia coli; test: Antimicrobial activity against CTX-M-15,OXA-30 beta-lactamase producing Escherichia coli isolate CUMC245 by disk diffusion method
[38] = test system: Escherichia coli; test: Antimicrobial activity against CMY-2 beta-lactamase producing Escherichia coli isolate CUMC225 by disk diffusion method
[39] = test system: Escherichia coli; test: Antimicrobial activity against CMY-2,TEM-2-like beta-lactamase producing Escherichia coli isolate CUMC224 by disk diffusion method
[40] = test system: Escherichia coli; test: Antimicrobial activity against CMY-2 beta-lactamase producing Escherichia coli isolate CUMC223 by disk diffusion method
[41] = test system: Escherichia coli; test: Antimicrobial activity against CMY-2 beta-lactamase producing Escherichia coli isolate CUMC214 by disk diffusion method
[42] = test system: Escherichia coli; test: Antimicrobial activity against CMY-2 beta-lactamase producing Escherichia coli isolate CUMC201 by disk diffusion method
[43] = test system: Escherichia coli; test: Antimicrobial activity against CMY-2 beta-lactamase producing Escherichia coli isolate CUMC190 by disk diffusion method
[44] = test system: Escherichia coli; test: Antimicrobial activity against CMY-2 beta-lactamase producing Escherichia coli isolate CUMC181 by disk diffusion method

Question: `CO/N=C(\C(=O)N[C@@H]1C(=O)N2C(C(=O)O)=C(COC(C)=O)CS[C@H]12)c1csc(N)n1` [CEFOTAXIME] was tested. Which “inhibition zone (IZ)” value [1] did it give?
Answer: 11 mm

Question: And the “inhibition zone (IZ)” value [2]?
Answer: 11 mm

Question: And the “inhibition zone (IZ)” value [3]?
Answer: 7 mm

Question: And the “inhibition zone (IZ)” value [4]?
Answer: 17 mm

Question: And the “inhibition zone (IZ)” value [5]?
Answer: 15 mm

Question: What about the “inhibition zone (IZ)” value [6] of the same compound?
Answer: 18 mm

Question: What about the “inhibition zone (IZ)” value [7] of the same compound?
Answer: 13 mm

Question: What about the “inhibition zone (IZ)” value [8] of the same compound?
Answer: 14 mm

Question: And the “inhibition zone (IZ)” value [9]?
Answer: 12 mm

Question: What about the “inhibition zone (IZ)” value [10] of the same compound?
Answer: 18 mm

Question: What about the “inhibition zone (IZ)” value [11] of the same compound?
Answer: 16 mm

Question: And the “inhibition zone (IZ)” value [12]?
Answer: 8 mm

Question: And the “inhibition zone (IZ)” value [13]?
Answer: 12 mm

Question: And the “inhibition zone (IZ)” value [14]?
Answer: 13 mm

Question: What about the “inhibition zone (IZ)” value [15] of the same compound?
Answer: 11 mm

Question: And the “inhibition zone (IZ)” value [16]?
Answer: 10 mm

Question: And the “inhibition zone (IZ)” value [17]?
Answer: 12 mm

Question: And the “inhibition zone (IZ)” value [18]?
Answer: 13 mm

Question: And the “inhibition zone (IZ)” value [19]?
Answer: 12 mm

Question: What about the “inhibition zone (IZ)” value [20] of the same compound?
Answer: 11 mm

Question: And the “inhibition zone (IZ)” value [21]?
Answer: 30 mm

Question: What about the “inhibition zone (IZ)” value [22] of the same compound?
Answer: 30 mm

Question: What about the “inhibition zone (IZ)” value [23] of the same compound?
Answer: 31 mm

Question: And the “inhibition zone (IZ)” value [24]?
Answer: 30 mm

Question: What about the “inhibition zone (IZ)” value [25] of the same compound?
Answer: 30 mm

Question: What about the “inhibition zone (IZ)” value [26] of the same compound?
Answer: 32 mm

Question: And the “inhibition zone (IZ)” value [27]?
Answer: 30 mm

Question: What about the “inhibition zone (IZ)” value [28] of the same compound?
Answer: 32 mm

Question: And the “inhibition zone (IZ)” value [29]?
Answer: 30 mm

Question: And the “inhibition zone (IZ)” value [30]?
Answer: 29 mm

Question: And the “inhibition zone (IZ)” value [31]?
Answer: 28 mm

Question: And the “inhibition zone (IZ)” value [32]?
Answer: 32 mm

Question: What about the “inhibition zone (IZ)” value [33] of the same compound?
Answer: 15 mm

Question: And the “inhibition zone (IZ)” value [34]?
Answer: 17 mm

Question: And the “inhibition zone (IZ)” value [35]?
Answer: 17 mm

Question: And the “inhibition zone (IZ)” value [36]?
Answer: 16 mm

Question: And the “inhibition zone (IZ)” value [37]?
Answer: 6 mm

Question: And the “inhibition zone (IZ)” value [38]?
Answer: 11 mm

Question: And the “inhibition zone (IZ)” value [39]?
Answer: 15 mm

Question: And the “inhibition zone (IZ)” value [40]?
Answer: 13 mm

Question: What about the “inhibition zone (IZ)” value [41] of the same compound?
Answer: 13 mm

Question: What about the “inhibition zone (IZ)” value [42] of the same compound?
Answer: 12 mm

Question: What about the “inhibition zone (IZ)” value [43] of the same compound?
Answer: 6 mm

Question: And the “inhibition zone (IZ)” value [44]?
Answer: 13 mm

Question: Which results are given for `CC(C)(O/N=C(\C(=O)N[C@@H]1C(=O)N2C(C(=O)[O-])=C(C[n+]3ccccc3)CS[C@H]12)c1csc(N)n1)C(=O)O` [CEFTAZIDIME]?
Answer: inhibition zone (IZ) [1]: 8 mm; inhibition zone (IZ) [2]: 7 mm; inhibition zone (IZ) [3]: 6 mm; inhibition zone (IZ) [4]: 28 mm; inhibition zone (IZ) [5]: 27 mm; inhibition zone (IZ) [6]: 31 mm; inhibition zone (IZ) [7]: 28 mm; inhibition zone (IZ) [8]: 26 mm; inhibition zone (IZ) [9]: 25 mm; inhibition zone (IZ) [10]: 6 mm; inhibition zone (IZ) [11]: 12 mm; inhibition zone (IZ) [12]: 7 mm; inhibition zone (IZ) [13]: 12 mm; inhibition zone (IZ) [14]: 14 mm; inhibition zone (IZ) [15]: 13 mm; inhibition zone (IZ) [16]: 12 mm; inhibition zone (IZ) [17]: 13 mm; inhibition zone (IZ) [18]: 13 mm; inhibition zone (IZ) [19]: 13 mm; inhibition zone (IZ) [20]: 11 mm; inhibition zone (IZ) [21]: 29 mm; inhibition zone (IZ) [22]: 30 mm; inhibition zone (IZ) [23]: 33 mm; inhibition zone (IZ) [24]: 31 mm; inhibition zone (IZ) [25]: 30 mm; inhibition zone (IZ) [26]: 29 mm; inhibition zone (IZ) [27]: 30 mm; inhibition zone (IZ) [28]: 32 mm; inhibition zone (IZ) [29]: 32 mm; inhibition zone (IZ) [30]: 29 mm; inhibition zone (IZ) [31]: 29 mm; inhibition zone (IZ) [32]: 26 mm; inhibition zone (IZ) [33]: 28 mm; inhibition zone (IZ) [34]: 29 mm; inhibition zone (IZ) [35]: 30 mm; inhibition zone (IZ) [36]: 27 mm; inhibition zone (IZ) [37]: 16 mm; inhibition zone (IZ) [38]: 6 mm; inhibition zone (IZ) [39]: 7 mm; inhibition zone (IZ) [40]: 6 mm; inhibition zone (IZ) [41]: 8 mm; inhibition zone (IZ) [42]: 8 mm; inhibition zone (IZ) [43]: 8 mm; inhibition zone (IZ) [44]: 6 mm

From ChEMBL document CHEMBL1275514, “Surveillance of community-based reservoirs reveals the presence of CTX-M, imported AmpC, and OXA-30 beta-lactamases in urine isolates of Klebsiella pneumoniae and Escherichia coli in a U.S. community” (2008)
